Patent US5344850A, “Topical composition for preventing or treating acne vulgaris” (Takasago International Corporation, priority 1992, dated 1994)
≈ marks a conversion by molar mass, not a printed value. Read-outs that look alike come from different tables or passages of the source.

Experiments:
[1] = tested on: Propionibacterium acnes; assay: Minimum growth inhibitory concentration (MIC) on Propionibacterium acnes (Test Example 1); format: cell-based, Propionibacterium acnes (ATCC 6919); conditions: for MIC: Cutibacterium acnes; for Antibacterial activity (in words): inhibition of proliferation of Propionibacterium acnes, as compared with eugenol
Method: The minimum growth inhibitory concentrations (MIC) of the compounds (2) and (3) as obtained in Production Examples 1 and 2 on Propionibacterium acnes were determined in the following manner.
59.0 g of a GAM (Gifu anaerobic medium) bouillon medium (manufactured by Nissui Pharmaceutical Co., Ltd.) was dissolved in 1 liter of purified water and a test compound was added thereto so as to give a concentration of 100 μg/ml. A serial 2-fold dilution of the mixture thus obtained was made with the medium followed by sterilization. 10 ml portions of the mixture were pipetted into test tubes and each inoculated with 0.1 ml of Propionibacterium acnes (ATCC 6919) which had been pre-incubated to give a cell concentration of 1×10^8 cells/mi. After stationary incubation under anaerobic conditions for 48 hours, the turbidity was measured at a wavelength of 660 nm. […] For comparison, MIC of eugenol, which had been known as having a relatively strong antibacterial activity, on Propionibacterium acnes was determined.

[2] = tested on: Staphylococcus epidermidis, Pseudomonas aeruginosa, Corynebacterium species, Aerobacter kleps and Candida albicans; conditions: in words; cited from earlier work
[3] = tested on: Propionibacterium acnes; conditions: cited from earlier work
[4] = Propionibacterium acnes, GAM bouillon medium, anaerobic, 48 hours, turbidity at 660 nm, read-out: MIC

Row | Compound | Antibacterial activity (in words) [1] | MIC [1, 4] [µg/mL] | other results
1 | CC(C)CCCC(C)CCCC(C)CCCC(C)O (centres unmarked) [compound (2), 6,10,14-trimethylpentadecan-2-ol] | intense antibacterial activity | – | MIC ([1]; 48 h): 3.13 µg/mL (≈ 11.6 µM)
2 | C=CCc1ccc(O)c(OC)c1 [eugenol] | – | 50 (≈ 304 µM) | –
3 | CC(C)=CCCC(C)=CCCC(C)=CCO [farnesol, 3,7,11-trimethyldodeca-2,6,10-trien-1-ol] | – | – | growth inhibitory effect [2]: exhibits a growth inhibitory effect; antibacterial activity, used alone ([3]; farnesol used alone): little activity; antibacterial activity, used in combination ([3]; in combination with phenyl hydroxyalkyl ether and glycerol monolaurate): exhibits an antibacterial activity
4 | CC(C)=CCCC(C)=CCCC(C)=CCCC(C)O (centres unmarked) [compound (3), 6,10,14-trimethyl-5,9,13-pentadecatrien-2-ol] | intense antibacterial activity | 1.56 (≈ 5.9 µM) | –
